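Five concentrations, 48 hours, 96-well plates. At the TGI there is no net growth.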 A value given as a limit tells only on which side of the number the result lay.

From PubChem BioAssay (NCI) come the findings set out here.

Some test systems named below: A498 renal; CAKI-1 renal; COLO 205 colon; HS 578T breast; HT29 colon; MALME-3M melanoma; MOLT-4 leukemia; NCI-H226 lung; NCI-H460 lung; NCI/ADR-RES ovarian; SF-268 CNS; SK-MEL-28 melanoma; SN12C renal; SNB-19 CNS; SNB-75 CNS; U251 CNS; UACC-257 melanoma; UACC-62 melanoma; HOP-62 NSCLC; RPMI-8226 leukemia.
What all share (test): NCI anticancer screen, dose series, 48 h

For the compound `O=C(NCCCCN(CCCNC(=O)C(F)(F)F)Cc1ccc2ccccc2c1)C(F)(F)F`, the TGI with A498 renal was found to be 62.2 µM; in the test with CAKI-1 renal, 28.1 µM; in the test on COLO 205 colon, 30.3 µM; in the test with HS 578T breast it was 38.6 µM; in the test on HT29 colon, 26.6 µM; in the test with MALME-3M melanoma it was 29.1 µM. Besides, the TGI in the test on MOLT-4 leukemia stood at 49 µM; in the test on NCI-H226 lung, 56.8 µM; in the test on NCI-H460 lung it was 29.9 µM; in the test with NCI/ADR-RES ovarian, 32.7 µM; in the test with SF-268 CNS it was 31.9 µM; in the test on SK-MEL-28 melanoma, 31.5 µM. Besides, the TGI with SN12C renal was found to be 30.3 µM; in the test with SNB-19 CNS, 29 µM; with SNB-75 CNS it was 28.5 µM; with U251 CNS it was 67.2 µM; in the test with UACC-257 melanoma, 33.9 µM; in the test with UACC-62 melanoma it was 37 µM.
Take `O=S(=O)(N/N=C1\CC2CCC1C2)c1ccccc1` (stereo not drawn): the TGI with CAKI-1 renal, in the test with COLO 205 colon, in the test on HOP-62 NSCLC, in the test with HS 578T breast, with HT29 colon and with MALME-3M melanoma was > 100 µM in each case. The TGI in the test with MOLT-4 leukemia, in the test with NCI-H226 lung, with NCI-H460 lung, in the test with NCI/ADR-RES ovarian, with RPMI-8226 leukemia and in the test on SF-268 CNS was > 100 µM in each case. The TGI in the test with SK-MEL-28 melanoma, in the test on SN12C renal, with SNB-19 CNS, with SNB-75 CNS, with U251 CNS and with UACC-257 melanoma was > 100 µM each time. In the test on UACC-62 melanoma, the TGI is > 100 µM.
For the compound `O=C(c1ccco1)N(Cc1ccco1)C(=S)Nc1ccccc1`, the TGI in the test on CAKI-1 renal was 22.1 µM; in the test on COLO 205 colon, 26.8 µM; in the test on HOP-62 NSCLC, > 100 µM; in the test on HS 578T breast, 72 µM; in the test with HT29 colon, 42.1 µM; with MALME-3M melanoma, 44.2 µM. In addition, the TGI is 27.6 µM with MOLT-4 leukemia; > 100 µM in the test on NCI-H226 lung; 99.8 µM in the test with NCI-H460 lung; 55.3 µM with NCI/ADR-RES ovarian; 11.7 µM with RPMI-8226 leukemia; 85.3 µM with SF-268 CNS. Further, the TGI in the test with SK-MEL-28 melanoma was 33.8 µM; in the test on SN12C renal it was 45.4 µM; with SNB-19 CNS it was > 100 µM; with SNB-75 CNS, > 74.9 µM; with U251 CNS it was 91 µM; in the test on UACC-257 melanoma, 57.6 µM. Further, the TGI in the test with UACC-62 melanoma stood at 37.1 µM.
As for `N#CC1Cc2cc3c(cc21)OCO3` (stereo not drawn), the TGI with A498 renal, with CAKI-1 renal, in the test with COLO 205 colon, in the test with HOP-62 NSCLC, in the test on HS 578T breast and in the test on HT29 colon was > 100 µM each time. Further, the TGI in the test on MALME-3M melanoma, in the test on MOLT-4 leukemia, with NCI-H226 lung, with NCI-H460 lung, in the test with NCI/ADR-RES ovarian and in the test on SK-MEL-28 melanoma was > 100 µM throughout. The TGI in the test on SN12C renal, in the test on SNB-19 CNS, in the test on SNB-75 CNS, with U251 CNS, in the test with UACC-257 melanoma and in the test with UACC-62 melanoma was > 100 µM each time.
`COc1cc(/C=N/n2c(Cc3ccc(Cl)cc3)n[nH]c2=O)cc(OC)c1OC`: the TGI was > 100 µM in the test with A498 renal; > 100 µM with CAKI-1 renal; > 100 µM with COLO 205 colon; > 100 µM with HOP-62 NSCLC; 27.2 µM in the test with HS 578T breast; > 100 µM in the test with HT29 colon. The TGI in the test on MALME-3M melanoma, in the test with MOLT-4 leukemia, with NCI-H226 lung, in the test on NCI-H460 lung, with NCI/ADR-RES ovarian and in the test with SF-268 CNS was > 100 µM each time. The TGI in the test on SK-MEL-28 melanoma, with SN12C renal, with SNB-19 CNS, with SNB-75 CNS, with U251 CNS and in the test with UACC-257 melanoma was > 100 µM throughout. In the test on UACC-62 melanoma, the TGI was > 100 µM.
Regarding `COc1cc(-c2cc(=O)c3c(OC)c(OC)c(OC)cc3o2)c(OC)c(OC)c1OC`, the TGI with CAKI-1 renal, with COLO 205 colon, in the test on HOP-62 NSCLC, in the test with HS 578T breast, with HT29 colon and in the test on MALME-3M melanoma was > 75 µM throughout. In addition, the TGI in the test on MOLT-4 leukemia, in the test with NCI-H226 lung, in the test on NCI-H460 lung, with NCI/ADR-RES ovarian, with RPMI-8226 leukemia and with SF-268 CNS was > 75 µM throughout. The TGI in the test on SK-MEL-28 melanoma, in the test on SN12C renal, with SNB-19 CNS, in the test with SNB-75 CNS, with U251 CNS and in the test on UACC-257 melanoma was > 75 µM in each case. In addition, the TGI in the test on UACC-62 melanoma is > 75 µM.
As to `COC(=O)C1CCOC(C)N1C(=O)OC(C)(C)C` (stereo not drawn), the TGI in the test on CAKI-1 renal, in the test with COLO 205 colon, in the test with HOP-62 NSCLC, with HS 578T breast, in the test with HT29 colon and in the test on MALME-3M melanoma was > 100 µM in each case. For the same compound, the TGI in the test on MOLT-4 leukemia, in the test with NCI-H226 lung, with NCI-H460 lung, in the test on NCI/ADR-RES ovarian, with RPMI-8226 leukemia and in the test on SF-268 CNS was > 100 µM throughout. For the same compound, the TGI in the test with SK-MEL-28 melanoma, in the test on SN12C renal, with SNB-19 CNS, with SNB-75 CNS, in the test on U251 CNS and in the test with UACC-257 melanoma was > 100 µM throughout. Further, in the test with UACC-62 melanoma, the TGI was > 100 µM.
Turning to `N#Cc1n[nH]n(C2CCCCC2)c1=O`, the TGI in the test on A498 renal, in the test with CAKI-1 renal, in the test with COLO 205 colon, in the test on HOP-62 NSCLC, with HS 578T breast and in the test on HT29 colon was > 100 µM each time. Moreover, the TGI with MALME-3M melanoma, in the test on MOLT-4 leukemia, in the test on NCI-H226 lung, with NCI-H460 lung, with NCI/ADR-RES ovarian and in the test on SF-268 CNS was > 100 µM in each case. The TGI in the test on SK-MEL-28 melanoma, in the test on SN12C renal, with SNB-19 CNS, in the test on SNB-75 CNS, in the test with U251 CNS and with UACC-257 melanoma was > 100 µM each time. The TGI in the test on UACC-62 melanoma is > 100 µM.
Take `CCOC(=O)C1C(c2ccc(OC)cc2)c2c([nH]n(-c3ccccc3)c2=O)CC1(O)OCC` (stereo not drawn): the TGI in the test on A498 renal, in the test with CAKI-1 renal, in the test with COLO 205 colon, in the test with HOP-62 NSCLC, in the test on HS 578T breast and with HT29 colon was > 100 µM each time. Besides, the TGI was > 100 µM in the test on MALME-3M melanoma; 14 µM in the test on MOLT-4 leukemia; > 100 µM in the test on NCI-H460 lung; > 100 µM in the test on NCI/ADR-RES ovarian; > 100 µM in the test with RPMI-8226 leukemia; > 100 µM with SF-268 CNS. Further, the TGI in the test with SK-MEL-28 melanoma, in the test with SN12C renal, in the test with SNB-75 CNS, in the test on U251 CNS, in the test with UACC-257 melanoma and with UACC-62 melanoma was > 100 µM throughout.
Regarding `S=c1nc(Cc2ccc(Cl)cc2)[nH][nH]1`, the TGI with A498 renal, in the test on CAKI-1 renal, in the test on COLO 205 colon, in the test with HOP-62 NSCLC, with HS 578T breast and in the test with HT29 colon was > 100 µM in each case. Moreover, the TGI with MALME-3M melanoma, in the test with MOLT-4 leukemia, in the test on NCI-H226 lung, in the test with NCI-H460 lung, with NCI/ADR-RES ovarian and with SK-MEL-28 melanoma was > 100 µM throughout. Further, the TGI in the test on SN12C renal, in the test with SNB-19 CNS, in the test on SNB-75 CNS, with U251 CNS, in the test with UACC-257 melanoma and in the test with UACC-62 melanoma was > 100 µM each time.
Take `COCO[C@@H]1C[C@H]2C(=O)N(COC)c3ccccc3C(=O)N2C1`: the TGI with A498 renal, in the test on CAKI-1 renal, with COLO 205 colon, with HOP-62 NSCLC, in the test on HS 578T breast and in the test on HT29 colon was > 100 µM each time. The TGI in the test on MALME-3M melanoma, in the test with MOLT-4 leukemia, with NCI-H226 lung, with NCI/ADR-RES ovarian, in the test with SF-268 CNS and in the test on SK-MEL-28 melanoma was > 100 µM throughout. Moreover, the TGI with SN12C renal, with SNB-19 CNS, in the test on SNB-75 CNS, in the test on U251 CNS, in the test with UACC-257 melanoma and in the test on UACC-62 melanoma was > 100 µM throughout.
Consider `COc1cc(OC)cc(OCc2ccc3nc(-c4ccccc4)c(Cl)nc3c2)c1`, for which the TGI in the test with A498 renal was 76.8 µM; with CAKI-1 renal, 28.1 µM; with COLO 205 colon, 68.9 µM; in the test on HOP-62 NSCLC, 33.8 µM; in the test with HS 578T breast it was > 100 µM; in the test on HT29 colon, > 100 µM. Moreover, the TGI in the test with MALME-3M melanoma is 32.7 µM; with MOLT-4 leukemia it was 74.1 µM; in the test on NCI-H460 lung, > 100 µM; in the test on NCI/ADR-RES ovarian, 67.8 µM; in the test with RPMI-8226 leukemia, > 100 µM; in the test on SF-268 CNS it was > 100 µM. Besides, the TGI in the test on SK-MEL-28 melanoma was > 100 µM; in the test on SN12C renal it was > 100 µM; in the test on SNB-19 CNS, 66.9 µM; in the test with SNB-75 CNS, 37.4 µM; in the test with U251 CNS, 59.9 µM; with UACC-257 melanoma, > 100 µM. In addition, in the test with UACC-62 melanoma, the TGI is > 100 µM.
